Source: PMC4750701, “Role of Mitochondrial RNA Polymerase in the Toxicity of Nucleotide Inhibitors of Hepatitis C Virus” (Antimicrobial Agents and Chemotherapy, 2016)

What was measured:
[1] = Cytotoxicity in MRC5 fibroblasts, 5-day treatment; settings: human, MRC5 fibroblasts
Method: (§2) All cells were cultured at 37°C in a 5% CO2 incubator with 90% humidity unless noted otherwise. […] All cells were treated with the various compounds for 5 days, except for human erythroid and myeloid progenitors, which were treated for 14 days. After the incubation period, cell viability was measured by the addition of CellTiter Glo viability reagents (Promega, Madison, WI). The luminescence signal was quantified on an Envision luminescence plate reader (PerkinElmer, Waltham, MA) after incubation of the reagents and cells for 10 min at room temperature. […] CC50 values were calculated as the average of the results of three or four independent experiments.
Cell Culture and Cytotoxicity Studies
(§3) The Huh-7 cells were maintained in growth medium containing Dulbecco's Modified Eagle
(§4) Medium (DMEM, Cellgro) supplemented with 1% Nonessential Amino Acids (NEAA, Cellgro,
(§5) Manassas, VA), 10% fetal bovine serum (FBS, HyClone, Logan, UT) and 1% Penicillin-
(§6) streptomycin-glutamate (PSG, Invitrogen, Carlsbad, CA). The cells were passaged twice weekly
(§7) and maintained at 90% confluence densities.
(§8) The HepG2 cells were maintained in Eagle’s Minimum Essential Medium (EMEM) from ATCC
(§9) (Manassas, VA) supplemented with 10% FBS, 100 units/mL penicillin and 100 µg/mL
(§10) streptomycin (P/S) (Gibco). The cells were passaged twice weekly and maintained at 90%
(§11) The PC-3 cells were maintained in Kaighn’s F12 medium (Gibco, Carlsbad, CA) supplemented
(§12) with 10% FBS (HyClone, Logan, UT), 100 units/mL penicillin and 100 µg/mL streptomycin
(§13) (P/S) (Gibco). The cells were passaged twice weekly and maintained at 90% confluence. Cells
(§14) between passages 4 and 15 were used in the assays.
(§15) The fibroblast cell line MRC-5 cell line derived from normal lung tissue, was purchased from
(§16) ATCC (Manassas, VA) and cultured in Minimum Essential Medium (MEM) (Cellgro, Manassas,
(§17) VA) supplemented with 10% FBS (HyClone, Logan, UT) and 1% PSG (Invitrogen). The cells
(§18) were passaged twice weekly and maintained at 90% confluence densities.

[2] = tested on: mitochondrial spare respiratory capacity; test: Oxygen consumption rate / spare respiratory capacity in PC-3 cells; settings: human, pH 7.4
[3] = Cytotoxicity in Huh7 cells, 5-day treatment (CellTiter Glo); settings: human, Huh-7 cells
Method: as §2
Cell Culture and Cytotoxicity Studies
as §3, §4, §5, §6, §7, §8, §9, §10, §11, §12, §13, §14, §15, §16, §17, §18

[4] = Bone marrow erythroid progenitor colony assay, 14 days; assay type: cell-based, human; settings: human, read-out: Mean CC50 ± SD in Bone marrow cells Erythroid; for CC50 at 14 days: human bone marrow erythroid progenitors
[5] = Cytotoxicity / ATP level in PC-3 cells, 5-day treatment; settings: human, PC-3 cells
[6] = Bone marrow myeloid progenitor colony assay, 14 days; assay type: cell-based, human; settings: human, read-out: Mean CC50 ± SD in Bone marrow cells Myeloid; for CC50 at 14 days: human bone marrow myeloid progenitors
[7] = tested on: nuclear DNA-encoded succinate dehydrogenase (SDH-A; complex II) protein level; test: Nuclear protein synthesis (SDH-A, MitoBiogenesis in-cell ELISA) in PC-3 cells; assay type: cell-based, human; settings: human, read-out: Mean CC50 ± SD causing General cellular toxicity: Protein synthesis
Summary of the method: (§1)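 PC-3 cells were exposed to compound for 5 days. Protein levels of nuclear-encoded SDH-A and mitochondrial-encoded COX-1 were then quantified by in-cell ELISA (quantitative immunocytochemistry).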

[8] = Cytotoxicity in HepG2 (galactose) cells, 5-day treatment; settings: human, HepG2 cells (galactose)
Method: as §2
Cell Culture and Cytotoxicity Studies
as §3, §4, §5, §6, §7, §8, §9, §10, §11, §12, §13, §14, §15, §16, §17, §18

[9] = Cytotoxicity in primary human hepatocytes, 5 days; settings: human, primary human hepatocytes
Method: (§19) Primary human hepatocytes were from Bioreclamation IVT (Westbury, NY) or Life Technologies (Carlsbad, CA).
as §2

[10] = Cytotoxicity in MT-4 T-cells, 5-day treatment; settings: human, MT-4 cells
Method: as §19, §2

[11] = Cytotoxicity in stimulated PBMCs, 5 days; settings: human, stimulated PBMCs
Method: (§20) Human peripheral blood mononuclear cells (PBMCs) were isolated from human buffy coats obtained from healthy volunteers (Stanford Blood Bank, Palo Alto, CA) using standard Ficoll separation and stimulated as described elsewhere ([13]) and were tested at both quiescent and stimulated stages. Quiescent PBMCs were stimulated with 10 units per ml of recombinant human interleukin 2 (hIL-2) and 1 μg per ml phytohemagglutinin P (PHA-P) for 48 h prior to drug treatment.
as §2
(§21) Human peripheral blood mononuclear cells (PBMCs) were isolated from human buffy coats
(§22) obtained from normal healthy volunteers (Stanford Medical School Blood Center, Palo Alto,
(§23) CA). Total PBMCs were isolated from buffy coats using standard Ficoll separation and sterile
(§24) cellular isolation techniques performed in a bio-safety cabinet (1). Except where noted, the
(§25) procedure was carried out at room temperature. The final PBMCs pellet was resuspended in
(§26) Logan, UT), penicillin 100 units/mL and streptomycin 100 µg/mL (Gibco). For quiescent
(§27) PBMCs cultures, total cells were seeded in 96-well plates at a density of 1 x 10^6 cells per well, followed by immediate drug treatment. Stimulated PBMCs cultures were set up by seeding the freshly isolated PBMCs in T-175cm2 tissue culture flasks in 100 mL of RPMI containing the same components as the ones used for the quiescent PBMCs but with the addition of 10 units per mL of recombinant human interleukin-2 (hIL-2, Roche, Indianapolis, IN), and 1 µg per mL phytohemagglutinin-P (PHA-P, Sigma-Aldrich, St. Louis, MO) at density of 2  10^6 cells per mL for 48 hours at 37C in a 5% CO2 incubator with 90% humidity, prior to drug treatment.

[12] = Cytotoxicity in quiescent PBMCs, 5 days; settings: human, quiescent PBMCs
Method: as §20, §2, §21, §22, §23, §24, §25, §26, §27

[13] = target: T1, recombinant human PolRMT (Homo sapiens, UniProt O00411); test: Single-nucleotide incorporation by PolRMT; assay type: biochemical; settings: triphosphate form, fixed saturating concentration 500 μM, rate relative to corresponding natural rNTP
T1 construct: purchased Enzymax (Lexington, KY)
Excerpt: Activated fish sperm DNA was purchased from USB/Affymetrix (Santa Clara, CA) and used as a template for the DNA polymerases alpha, beta, and gamma. The DNA template used in the RNA Pol II assay was a 1,188-bp restriction fragment containing the cytomegalovirus (CMV) immediate early promoter (Promega, Madison, WI). The RNA and DNA oligonucleotides used in the mitochondrial RNA polymerase assay (see Table S1 in the supplemental material) were synthesized and PAGE purified by Thermo Scientific/Dharmacon (Lafayette, CO). RNA primer R12 was 5′-^32P-phosphorylated with [γ-^32P]ATP (3,000 Ci/mmol) and T4 kinase (New England BioLabs, Ipswich, MA).
Human DNA polymerase alpha, isolated from HeLa cell extracts, was from CHIMERx (Madison, WI). Recombinant human DNA polymerase beta, expressed in E. coli, was a gift from Zucai Suo at The Ohio State University. Recombinant human DNA polymerase gamma (including both the large subunit and the small subunit) was cloned, expressed, and purified from insect cells by Gilead Sciences (Foster City, CA) ([13]). RNA PolII was purchased as part of the HeLaScribe nuclear extract in vitro transcription system kit from Promega (Madison, WI). The recombinant human PolRMT and the transcription factors mitochondrial transcription factor A (mtTFA) and B2 (mtTFB2) were purchased from Enzymax (Lexington, KY). FLAG epitope-tagged RNA PolI and PolIII complexes were isolated from rat NSN1 cells and HeLa cells, respectively ([17], [18]). The inhibition of DNA polymerases alpha, beta, and gamma, PolRMT, and PolII and the rate of single-nucleotide incorporation by PolRMT have been described previously in detail ([12], [13], [19]). Inhibition of RNA PolI and PolIII was studied using published methods ([20], [21]). All concentrations were final unless noted otherwise. For the RNA PolI inhibition assay, a reaction mixture containing 50 mM HEPES (pH 7.9), 20% glycerol, 100 mM KCl, 1 mM dithiothreitol (DTT), 50 μg/ml calf thymus DNA, 4 mM MgCl2, 5 or 80 μM UTP (0.25 μl of [5,6-^3H]UTP, >25 Ci/mmol; PerkinElmer), 1 mM noncompeting NTP, competing NTP (5 μM for GTP, CTP, and UTP and 25 μM for ATP), and various concentrations (0 to 500 μM) of NTP analogs was preincubated at 30°C for 5 min. […] After incubation at 30°C for 20 min to 1 h, the reactions were terminated by pipetting the mixtures onto DEAE-cellulose discs (DE81; Whatman), and the products analyzed as described previously ([20], [21]).
Supplementary Table S1: RNA primer and templates used in mitochondrial RNA
polymerase single nucleotide incorporation assay.
Oligonucleotides Sequencesa
Primer (R12) 5’-[…]-3’
Templates (D18) 3’-[…]-5’
a The bold letter in the template sequences denotes the bases that pair with the incoming NTP. […]

[14] = tested on: mitochondrial spare respiratory capacity in PC-3 cells; test: Oxygen consumption rate / spare respiratory capacity in PC-3 cells; settings: PC-3 cells, 3-day treatments
[15] = tested on: mitochondrial DNA-encoded cytochrome c oxidase (COX-1); test: Mitochondrial protein synthesis assay (COX-1, MitoBiogenesis in-cell ELISA) in PC-3 cells; assay type: cell-based, human; settings: PC-3 cells; for selectivity of effect on COX-1 versus SDH-A and ATP levels: 5-day treatments
Summary of the method: as §1

[16] = tested on: human myeloid progenitors (bone marrow cells); settings: read-out: Mean CC50 ± SD in Bone marrow cells Myeloid; 14 days; cited from earlier work
[17] = tested on: Primary human hepatocytes; design: method as in PMID 24419349; settings: 5 days, read-out: Mean CC50 ± SD in Hepatic cells (primary); cited from earlier work
[18] = tested on: human erythroid progenitors (bone marrow cells); settings: read-out: Mean CC50 ± SD in Bone marrow cells Erythroid; 14 days; cited from earlier work
[19] = tested on: Prostate cells (PC-3); test: Cytotoxicity / ATP level in PC-3 cells, 5-day treatment; settings: read-out: Mean CC50 ± SD causing General cellular toxicity: ATP level; PC-3 cells, 5 days

T1 sequence (O00411 42-1230): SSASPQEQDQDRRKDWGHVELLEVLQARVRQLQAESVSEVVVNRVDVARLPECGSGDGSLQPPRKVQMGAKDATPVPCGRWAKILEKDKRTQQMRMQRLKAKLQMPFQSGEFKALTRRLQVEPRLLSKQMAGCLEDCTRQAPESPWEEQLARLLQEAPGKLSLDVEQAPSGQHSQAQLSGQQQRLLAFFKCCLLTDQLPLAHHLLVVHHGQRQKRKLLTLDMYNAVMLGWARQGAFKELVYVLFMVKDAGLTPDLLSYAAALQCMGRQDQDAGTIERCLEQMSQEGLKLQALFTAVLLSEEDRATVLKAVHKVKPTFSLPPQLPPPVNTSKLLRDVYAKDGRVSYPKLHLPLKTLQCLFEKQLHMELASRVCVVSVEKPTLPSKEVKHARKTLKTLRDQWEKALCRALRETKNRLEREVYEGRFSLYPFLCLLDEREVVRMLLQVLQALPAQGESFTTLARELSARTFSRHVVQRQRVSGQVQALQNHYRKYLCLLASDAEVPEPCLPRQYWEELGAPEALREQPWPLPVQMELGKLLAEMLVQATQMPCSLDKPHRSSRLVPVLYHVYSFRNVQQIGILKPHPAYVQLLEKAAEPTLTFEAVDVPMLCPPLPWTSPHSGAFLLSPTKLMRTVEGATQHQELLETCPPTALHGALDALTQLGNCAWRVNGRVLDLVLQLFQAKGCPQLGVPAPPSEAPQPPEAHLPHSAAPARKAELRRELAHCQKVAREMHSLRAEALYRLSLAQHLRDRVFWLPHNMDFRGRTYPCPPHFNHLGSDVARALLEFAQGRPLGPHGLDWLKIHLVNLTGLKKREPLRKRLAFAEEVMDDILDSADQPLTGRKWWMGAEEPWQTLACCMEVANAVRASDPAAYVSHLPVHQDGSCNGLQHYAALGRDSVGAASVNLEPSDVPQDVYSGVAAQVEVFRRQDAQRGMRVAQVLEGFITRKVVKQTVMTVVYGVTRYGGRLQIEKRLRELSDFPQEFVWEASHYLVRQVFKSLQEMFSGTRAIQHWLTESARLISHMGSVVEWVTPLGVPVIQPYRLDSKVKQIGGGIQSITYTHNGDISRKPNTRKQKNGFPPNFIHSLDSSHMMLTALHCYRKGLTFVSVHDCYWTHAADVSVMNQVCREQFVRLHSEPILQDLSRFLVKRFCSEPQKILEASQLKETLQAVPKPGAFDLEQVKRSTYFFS

Row | SMILES | Substrate incorporation (% of NTP [mean ± SD]) of PolRMT [13] | CC50 at 5 days [1] [µM] | CC50 at 5 days [3] [µM] | CC50 at 14 days [4] [µM] | CC50 at 5 days [5] [µM] | CC50 at 14 days [6] [µM] | CC50 at 5 days [7] [µM] | CC50 at 5 days [8] [µM] | CC50 at 5 days [9] [µM] | CC50 at 5 days [10] [µM] | CC50 at 5 days [11] [µM] | CC50 at 5 days [12] [µM] | CC50 [19] [µM] | other results
1 | C[C@@]1(O)[C@H](O)[C@@H](CO)O[C@H]1n1ccc(N)nc1=O [2′CMeC, 2′-C-methyl (2′CMe) cytidine] |  | 69 ± 1 | > 89 | 99 ± 18 | 49 ± 18 | 76 ± 16 | 68 ± 26 | > 89 | > 100 | 19 ± 6 | 64 ± 18 | > 100 |  | CC50 at 3 days ([2]; PC-3 cells): 100 µM
2 | [N-]=[N+]=N[C@]1(CO)O[C@@H](n2ccc(N)nc2=O)[C@H](O)[C@@H]1O [4′-AzidoC, 4′-azido cytidine] |  | > 89 | > 89 | > 100 | 30 ± 6 | 108 ± 12 | > 50 | > 89 | > 100 | > 100 | > 100 | > 100 |  | CC50 at 3 days ([2]; PC-3 cells): 4.5 ± 0.3 µM; selectivity of effect on spare respiratory capacity versus DNA and ATP levels [14]: selective inhibition of mitochondrial respiration; selectivity of effect on COX-1 versus SDH-A and ATP levels [15]: selective inhibition of COX-1 synthesis
3 | COc1nc(N)nc2c1ncn2[C@@H]1O[C@H](COP(=O)(N[C@@H](C)C(=O)OCC(C)(C)C)Oc2cccc3ccccc23)[C@@H](O)[C@@]1(C)O (stereo partly drawn) [BMS-986094] | rates similar to those of their corresponding natural rNTPs |  |  |  |  |  | 0.84 ± 0.26 |  |  |  |  |  |  | CC50 at 3 days [2]: 0.48 ± 0.07 µM; selectivity of effect on spare respiratory capacity versus DNA and ATP levels [14]: selective inhibition of mitochondrial respiration; potentiation of mitochondrial and cellular toxicity by coincubation with RBV ([15]; 5-day treatment, RBV 10 μM): 3- to 4 fold; selectivity of effect on COX-1 versus SDH-A and ATP levels [15]: selective inhibition of COX-1 synthesis; CC50 [4]: 4.5 ± 1.5 µM; CC50 [6]: 2.6 ± 0.5 µM
4 | CC(C)OC(=O)[C@H](C)N[P@](=O)(OC[C@H]1O[C@@](C#N)(c2ccc3c(N)ncnn23)[C@](C)(O)[C@@H]1OC(=O)C(C)C)Oc1ccccc1 [GS-6620] |  |  |  |  |  |  | 45 ± 2 |  |  |  |  |  |  | CC50 [16]: 3.1 ± 2.6 µM; CC50 [17]: > 100 µM; CC50 [18]: 15 ± 7 µM
5 | CC(C)OC(=O)[C@H](C)N[P@](=O)(OC[C@H]1O[C@@H](n2ccc(=O)[nH]c2=O)[C@](C)(F)[C@@H]1O)Oc1ccccc1 [Sofosbuvir] | 0.45 ± 0.40 % of NTP |  |  |  |  |  | > 100 |  |  |  |  |  | > 100 | CC50 [16]: > 100 µM; CC50 [18]: > 100 µM; Substrate incorporation (% of NTP [mean ± SD]) of PolRMT ([13]; listed as sofosbuvir): < 1 % of NTP

Continued, in another order:

Row | Substrate incorporation (% of NTP [mean ± SD]) of PolRMT [13] | SMILES | CC50 at 5 days [1] [µM] | CC50 at 5 days [3] [µM] | CC50 at 14 days [4] [µM] | CC50 at 5 days [5] [µM] | CC50 at 14 days [6] [µM] | CC50 at 5 days [7] [µM] | CC50 at 5 days [8] [µM] | CC50 at 5 days [9] [µM] | CC50 at 5 days [10] [µM] | CC50 at 5 days [11] [µM] | CC50 at 5 days [12] [µM] | CC50 [19] [µM] | other results
6 | 92 ± 33 % of NTP | C[C@@]1(O)[C@H](O)[C@@H](COP(=O)(O)OP(=O)(O)OP(=O)(O)O)O[C@H]1n1cnc2c(=O)[nH]c(N)nc21 [2′CMeGTP] |  |  |  |  |  |  |  |  |  |  |  |  | 
7 | 1.6 ± 0.2 % of NTP | CCOc1nc(N)nc2c1ncn2[C@@H]1O[C@@H]2COP(=O)(OC(C)C)O[C@H]2[C@@]1(C)F (stereo partly drawn) [PSI-938] | > 89 | > 89 | > 100 | > 100 | > 100 | > 100 | > 89 | > 100 | > 100 | > 100 | > 100 | > 100 | 
8 | 0.81 ± 0.13 % of NTP | C[C@@]1(F)[C@H](O)[C@@H](CO)O[C@H]1n1ccc(N)nc1=O [PSI-6130] | > 89 | > 89 |  | > 100 |  | > 100 | > 89 | > 100 | > 100 | 100 | > 100 | > 100 | 
